In PubChem BioAssay AID328 (DTP/NCI, 2004) one finds T/C data, which are given here for 17 molecules.

Values joined by “and” are separate entries in the source; they are usually repeats but may differ in a detail not shown here. Identical values can stand only once. Toxic doses and inconclusive results are not listed.

The test concerns BDF1 mice, P388 leukemia ip, median survival T/C. Description: NCI In Vivo Anticancer Drug Screen. Data for tumor model P388 Leukemia (intraperitoneal) in B6D2F1 (BDF1) mice. The note with it: endpoint: median survival time, higher = longer survival. The method in brief:
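Transplantable tumour in mice; compound vs vehicle dosing; survival scored; ratio of treated to control reported.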

Setting [1] is: dose: 25.0 mg/kg/injection, schedule: Q01DX009 (ip), vehicle: Klucel (hydroxypropylcellulose) (HPC).
The mark [2] stands for this setting: dose: 50.0 mg/kg/injection, schedule: Q01DX009 (ip), vehicle: Klucel (hydroxypropylcellulose) (HPC).
Where [3] appears, read: dose: 100.0 mg/kg/injection, schedule: Q04DX003 (ip), vehicle: Klucel (hydroxypropylcellulose) (HPC).
Where [4] appears, read: dose: 200.0 mg/kg/injection, schedule: Q01DX009 (ip), vehicle: Klucel (hydroxypropylcellulose) (HPC).
[5] abbreviates: dose: 200.0 mg/kg/injection, schedule: Q04DX003 (ip), vehicle: Klucel (hydroxypropylcellulose) (HPC).
The mark [6] stands for this setting: dose: 400.0 mg/kg/injection, schedule: Q01DX009 (ip), vehicle: Klucel (hydroxypropylcellulose) (HPC).
Setting [7] is: dose: 400.0 mg/kg/injection, schedule: Q04DX003 (ip), vehicle: Klucel (hydroxypropylcellulose) (HPC).
The mark [8] stands for this setting: dose: 100.0 mg/kg/injection, schedule: Q01DX009 (ip), vehicle: Klucel (hydroxypropylcellulose) (HPC).
Where [9] appears, read: dose: 50.0 mg/kg/injection, schedule: Q01DX010 (ip), vehicle: saline.
[10] abbreviates: dose: 100.0 mg/kg/injection, schedule: Q01DX010 (ip), vehicle: saline.
Setting [11] is: dose: 200.0 mg/kg/injection, schedule: Q01DX010 (ip), vehicle: saline.
Setting [12] is: dose: 6.25 mg/kg/injection, schedule: Q01DX009 (ip), vehicle: saline with Tween-80.
The mark [13] stands for this setting: dose: 12.5 mg/kg/injection, schedule: Q01DX009 (ip), vehicle: saline with Tween-80.
[14] abbreviates: dose: 25.0 mg/kg/injection, schedule: Q01DX009 (ip), vehicle: saline with Tween-80.
Setting [15] is: dose: 50.0 mg/kg/injection, schedule: Q01DX009 (ip), vehicle: saline with Tween-80.

`C#C/C=C/CC1O/C(=C(\Br)CC)C/C=C\CC1Cl` (stereo unspecified): the T/C was 99 % of control (dose: 12.5 mg/kg/injection, schedule: Q01DX009 (ip), vehicle: other); 114 % of control (dose: 25.0 mg/kg/injection, schedule: Q01DX009 (ip), vehicle: other); 99 % of control (dose: 50.0 mg/kg/injection, schedule: Q01DX009 (ip), vehicle: other).
Regarding `CCCC(=O)Nc1ccn(C2OC(COC(=O)CCC)C(OC(=O)CCC)C2OC(=O)CCC)c(=O)n1` (stereo unspecified), the T/C by setting is: (dose: 6.25 mg/kg/injection, schedule: Q01DX009 (ip), vehicle: Klucel (hydroxypropylcellulose) (HPC)) 91 % of control; (dose: 12.5 mg/kg/injection, schedule: Q01DX009 (ip), vehicle: Klucel (hydroxypropylcellulose) (HPC)) 100 % of control; under setting [1], 87 % of control; under setting [2], 104 % of control; under setting [3], 100 % of control; under setting [4], 165 % of control and 177 % of control. Besides, the T/C reads like this: under setting [5], 109 % of control; under setting [6], 181 % of control and 190 % of control; under setting [7], 122 % of control.
`Nc1nc(SCc2ccccn2)c2[nH]cnc2n1`: the T/C by setting is: (dose: 20.0 mg/kg/injection, schedule: Q04DX003 (ip), vehicle: Klucel (hydroxypropylcellulose) (HPC)) 104 % of control; (dose: 30.0 mg/kg/injection, schedule: Q04DX003 (ip), vehicle: Klucel (hydroxypropylcellulose) (HPC)) 104 % of control; (dose: 44.0 mg/kg/injection, schedule: Q04DX003 (ip), vehicle: Klucel (hydroxypropylcellulose) (HPC)) 104 % of control; under setting [8], 107 % of control; under setting [4], 92 % of control.
Turning to `Cn1c(=O)c2[nH]cnc2n(C)c1=O`, the T/C is 95 % of control (dose: 25.0 mg/kg/injection, schedule: Q01DX010 (ip), vehicle: saline); 104 % of control under setting [9]; 100 % of control under setting [10]; 104 % of control under setting [11].
For `CCOC(=O)C1=C(Nc2ccc([N+](=O)[O-])cc2)CCCC1`, the T/C (dose: 50.0 mg/kg/injection, schedule: Q01DX009 (ip), vehicle: saline) was 87 % of control.
Regarding `O=C(O)/C=C/c1c[nH]c(=O)[nH]c1=O`, the T/C was 101 % of control (dose: 25.0 mg/kg/injection, schedule: Q04DX003 (ip), vehicle: Klucel (hydroxypropylcellulose) (HPC)); 101 % of control (dose: 50.0 mg/kg/injection, schedule: Q04DX003 (ip), vehicle: Klucel (hydroxypropylcellulose) (HPC)); 115 % of control under setting [3].
`CSc1nc(C)cc(=O)[nH]1`: the T/C under setting [12] was 105 % of control, the T/C under setting [13] was 103 % of control, the T/C under setting [14] was 115 % of control and the T/C under setting [15] is 108 % of control.
As for `O=[P+](O)C(O)c1ccccc1` (stereo unspecified), the T/C reads like this: (dose: 100.0 mg/kg/injection, schedule: Q04DX003 (ip), vehicle: saline) 100 % of control; (dose: 200.0 mg/kg/injection, schedule: Q04DX003 (ip), vehicle: saline) 108 % of control; (dose: 400.0 mg/kg/injection, schedule: Q04DX003 (ip), vehicle: saline) 91 % of control.
`C=CCc1cn(C2CC(O)C(CO)O2)c(=O)[nH]c1=O` (stereo unspecified): the T/C is, setting by setting: (dose: 100.0 mg/kg/injection, schedule: Q01DX009 (ip), vehicle: saline) 116 % of control; (dose: 200.0 mg/kg/injection, schedule: Q01DX009 (ip), vehicle: saline) 108 % of control; (dose: 400.0 mg/kg/injection, schedule: Q01DX009 (ip), vehicle: saline) 116 % of control.
In the case of `CCC(O)C(C)C(O)C(C)C(O)C(C)C(O)C(C)C1OC(=O)CC(O)C(C)C(O)CC(O)CCCC(O)CCC(C)C(O)C2(O)C(=O)CC(CC(O)CC(O)CC(O)CC(O)CCCC(O)C1O)OC2=O` (stereo unspecified), the T/C (dose: 2.5 mg/kg/injection, schedule: Q01DX009 (ip), vehicle: saline) is 92 % of control; the T/C (dose: 5.0 mg/kg/injection, schedule: Q01DX009 (ip), vehicle: saline) was 109 % of control; the T/C (dose: 10.0 mg/kg/injection, schedule: Q01DX009 (ip), vehicle: saline) was 109 % of control.
On to `COc1cccc2c1CCC1=C2CC=C2CC3(CCC21C)OCCO3` (stereo unspecified), for which the T/C (dose: 5.0 mg/kg/injection, schedule: Q04DX003 (sc), vehicle: steriod suspending solution) was 109 % of control; the T/C (dose: 10.0 mg/kg/injection, schedule: Q04DX003 (sc), vehicle: steriod suspending solution) was 104 % of control; the T/C (dose: 20.0 mg/kg/injection, schedule: Q04DX003 (sc), vehicle: steriod suspending solution) was 118 % of control.
For the molecule `O=C1CC(c2c[nH]c3nccnc23)NN1` (stereo unspecified), the T/C is 100 % of control (dose: 12.5 mg/kg/injection, schedule: Q01DX009 (ip), vehicle: water); 101 % of control (dose: 25.0 mg/kg/injection, schedule: Q01DX009 (ip), vehicle: water); 104 % of control (dose: 25.0 mg/kg/injection, schedule: Q04DX003 (ip), vehicle: water); 110 % of control (dose: 50.0 mg/kg/injection, schedule: Q01DX009 (ip), vehicle: water); 100 % of control (dose: 50.0 mg/kg/injection, schedule: Q04DX003 (ip), vehicle: water); 100 % of control (dose: 100.0 mg/kg/injection, schedule: Q01DX009 (ip), vehicle: water). Also, the T/C was 95 % of control (dose: 100.0 mg/kg/injection, schedule: Q04DX003 (ip), vehicle: water); 103 % of control (dose: 200.0 mg/kg/injection, schedule: Q01DX009 (ip), vehicle: water); 104 % of control (dose: 200.0 mg/kg/injection, schedule: Q04DX003 (ip), vehicle: water); 103 % of control (dose: 300.0 mg/kg/injection, schedule: Q01DX009 (ip), vehicle: water); 100 % of control (dose: 400.0 mg/kg/injection, schedule: Q04DX003 (ip), vehicle: water).
For `COc1cccc2c(Cl)c(CCl)c(C)nc12`, the T/C runs as follows: under setting [12], 94 % of control; under setting [13], 110 % of control; under setting [14], 103 % of control; under setting [15], 103 % of control; (dose: 100.0 mg/kg/injection, schedule: Q01DX009 (ip), vehicle: saline with Tween-80) 103 % of control.
`OCC1OC(n2cnc3c(SSc4ncnc5c4ncn5C4OC(CO)C(O)C4O)ncnc32)C(O)C1O` (stereo unspecified): the T/C (dose: 118.0 mg/kg/injection, schedule: Q01DX010 (ip), vehicle: saline) is 104 % of control and the T/C (dose: 178.0 mg/kg/injection, schedule: Q01DX010 (ip), vehicle: saline) was 104 % of control.
Regarding `O=C1CC(c2ccc(O)cc2)C2(O1)C(=O)OC(C(O)CO)C2O` (stereo unspecified), the T/C runs as follows: under setting [9], 100 % of control; under setting [10], 100 % of control; under setting [11], 105 % of control; (dose: 400.0 mg/kg/injection, schedule: Q01DX010 (ip), vehicle: saline) 105 % of control.
Consider `CCOC(=O)C(C#N)C(C)CC` (stereo unspecified), for which the T/C by setting is: under setting [1], 90 % of control; under setting [2], 104 % of control; under setting [8], 100 % of control; under setting [3], 87 % of control; under setting [4], 95 % of control; under setting [5], 104 % of control. The T/C by setting is: under setting [6], 90 % of control; under setting [7], 95 % of control.
As to `CCC12C=CCN3CCC4(c5cc(C(c6ccc(OC)cc6)c6cc7ccccc7[nH]6)c(OC)cc5N(C)C4C(O)(CO)C1O)C32` (stereo unspecified), the T/C reads like this: (dose: 2.0 mg/kg/injection, schedule: Q01DX009 (ip), vehicle: saline) 104 % of control; (dose: 4.0 mg/kg/injection, schedule: Q01DX009 (ip), vehicle: saline) 98 % of control; (dose: 8.0 mg/kg/injection, schedule: Q01DX009 (ip), vehicle: saline) 95 % of control; (dose: 16.0 mg/kg/injection, schedule: Q01DX009 (ip), vehicle: saline) 98 % of control; (dose: 32.0 mg/kg/injection, schedule: Q01DX009 (ip), vehicle: saline) 104 % of control.
